Results on 14 compounds are retold here after patent US9951060B2, “2-acylaminothiazole derivative or salt thereof” (ASTELLAS PHARMA INC., priority 2014, dated 2018).

Data set [1] deals with human muscarinic M3 receptor (Homo sapiens, UniProt P20309). As to the kind of experiment: Test Example 1: muscarinic M3 receptor positive allosteric modulator activity (shift of carbachol concentration-response curve, intracellular Ca2+, FLIPR). The settings on record: carbachol EC50 without / with test substance, CHO-K1 cells expressing human M3; for muscarinic M3 receptor-positive allosteric modulator activity, 1 μM (-fold shift): test substance 1 μM; for muscarinic M3 receptor-positive allosteric modulator activity, 10 μM (-fold shift): test substance 10 μM.
Description: Test Example 1: Evaluation of Muscarinic M3 Receptor Positive Allosteric Modulator Activity
a) Construction of Vector Expressing Human Muscarinic M3 Receptor
A human muscarinic M3 receptor gene (GenBank Accession No.: NM_000740.2) was introduced into an expression vector pcDNA3.1™ (Life Technologies).
b) Construction of Cells Stably Expressing Human Muscarinic M3 Receptor
A vector expressing a human muscarinic M3 receptor was introduced into a CHO—K1 cell (ATCC No.: CCL-61). The introduction was carried out according to the attached instructions, using a transfection reagent, Lipofectoamine (registered trademark) 2000 Reagent (Life Technologies). The cells were incubated in an alpha Modified Eagle Minimum Essential Medium (α-MEM) including 2 mM glutamine, 10% fetal bovine serum, and 2.0 mg/mL Geneticin (registered trademark) (Life Technologies) for 4 weeks to acquire a drug-resistant clone.
c) Measurement of Intracellular Ca^2+ Concentration
The cells obtained in b) above were suspended in an α-MEM including 2 mM glutamine, 10% fetal bovine serum, and 0.2 mg/mL Geneticin (registered trademark) to the amount from 1.2 to 1.5×10^4 cells/well the day before the experiment, dispensed into a 384-well plate (Model No. 355962, BD Biosciences), and incubated overnight at 37° C. and 5% CO2. The medium was replaced with a loading buffer (an assay buffer (Hank's balanced salt solution (HBSS), 1 g/L BSA, 20 mM HEPES (pH 7.5), and 2.5 mM probenecid), including 3.1 μM Fluo 4-AM (Dojindo Laboratories) and incubated for about 2 hours at room temperature. Thereafter, the cells were washed with a plate washer ELx405™ (BIO-TEK Instrument, Inc.) set with the assay buffer, and set in an intracellular Ca^2+ concentration measuring system (FLIPR^tetra (registered trademark), Molecular Device Co.). The test substances (final concentration of 1 μM or 10 μM) and carbachol (Sigma, final concentration of 0.0024 nM to 10 μM) which had each been dissolved in the assay buffer in advance were set in a FLIPR^tetra (registered trademark). The test substances were added to the cells in the device and after about 5 minutes, carbachol was added to the cells. An increase rate of the intracellular Ca^2+ concentration by carbachol was measured (excitement wavelength of 470 nm to 495 nm and a fluorescence wavelength of 515 nm to 575 nm).
For the muscarinic M3 receptor-positive allosteric modulator activity, a shift toward a lower concentration side of a carbachol concentration-response curve by the test substance was used as an index. […] For example, when the EC50 value of carbachol in the absence of the test substance was 0.1 μM and the EC50 value of carbachol in the presence of the test substance was 0.01 μM, the value of the muscarinic M3 receptor-positive allosteric modulator activity becomes 10, showing that the test substance causes a 10-fold shift in the EC50 value toward to the low concentration side.

The subject of another data set is rat isolated bladder. Briefly: Test Example 3: effect on electrical field stimulation-induced contraction in rat isolated bladder. The settings on record: 10 μM test substance; AUC of contraction, value before treatment = 100%; SD female rat bladder. As for the experimental part: Test Example 3: Effect on Electrical Field Stimulation-Induced Contraction in Rat Isolated Bladder
As an effect on the nerve stimulation-dependent bladder contraction in in vitro, the effect of the Example compounds of the present invention in the electrical field stimulation-induced contraction of the rat isolated bladder was measured by the following method. That is, a bladder specimen having a width of about 2 mm and a length of about 10 mm in the longitudinal direction from the bladder isolated from a Sprague-Dawley (SD) female rat (Japan SLC, Inc.) was prepared. The prepared bladder specimen was suspended in an organ bath filled with 10 mL of a Krebs-Henseleite solution. The Krebs-Henseleite solution was aerated at 95% 02 and 5% CO2, and kept at 37° C. After carrying out stabilization at an initial tension of 1 g, the contraction was caused twice with 60 mM KCl. After stabilization of the specimen with a Krebs-Henseleite solution, the contraction was caused by carrying out electrical field stimulation at 20 V with an electrical stimulation device (Nihon Kohden) (a stimulation frequency of 8 Hz, a pulse width of 0.3 msec, and a stimulation time of 10 seconds). By repeating the transmural electrical stimulation at an interval of 2 minutes, a voltage was adjusted to obtain a contraction height of approximately 50% of the contractile response at 20 V. After the contraction by electrical field stimulation had been stabilized, 10 μL of the test substances dissolved in 100% dimethyl sulfoxide in advance (final concentrations of 3 μM, 10 μM, and 30 μM) was added thereto. The test substances were cumulatively administered at the following concentrations after the low-concentration contractile response had been stabilized. The response was taken into a personal computer through a PowerLab (registered trademark) (AD Instruments, Inc.), and analyzed by LabChart (registered trademark) (AD Instruments, Inc.). When the area under the response (area under curve, AUC) in each contraction response was calculated and the value before treatment with the test substance was taken as 100%, the enhancement rate (% of pre) of the isolated bladder contractions after treatment with the test substance was calculated.

Data set [2] deals with T1, human c-Mpl-introduced Ba/F3 cell (Homo sapiens, UniProt P40238).
T1 construct: expressed in transfected cells
T1 sequence (P40238 26-635): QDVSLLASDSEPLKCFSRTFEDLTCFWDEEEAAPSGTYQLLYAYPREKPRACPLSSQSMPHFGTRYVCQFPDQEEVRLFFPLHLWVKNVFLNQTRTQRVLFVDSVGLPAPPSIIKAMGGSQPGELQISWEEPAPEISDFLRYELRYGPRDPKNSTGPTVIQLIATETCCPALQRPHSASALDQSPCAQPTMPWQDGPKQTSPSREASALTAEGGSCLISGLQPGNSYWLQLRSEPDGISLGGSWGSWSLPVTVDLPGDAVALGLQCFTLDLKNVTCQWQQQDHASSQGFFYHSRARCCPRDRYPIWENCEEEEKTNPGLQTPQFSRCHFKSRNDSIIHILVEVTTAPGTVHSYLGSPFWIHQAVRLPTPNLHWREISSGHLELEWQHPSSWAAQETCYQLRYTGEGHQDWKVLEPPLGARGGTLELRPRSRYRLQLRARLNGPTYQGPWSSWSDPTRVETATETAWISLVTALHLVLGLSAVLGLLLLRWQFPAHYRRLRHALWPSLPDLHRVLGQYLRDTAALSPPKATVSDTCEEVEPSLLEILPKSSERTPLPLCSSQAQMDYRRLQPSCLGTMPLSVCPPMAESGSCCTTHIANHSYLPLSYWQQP
As to the kind of experiment: Test Example 2: human c-Mpl-introduced Ba/F3 cell proliferative activity. Type of data set: cell-based. Conditions: concentration exhibiting 30% proliferation; 100% = positive control (Example 315 of Patent Document 1) at 1 μM. Put shortly:
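Ba/F3 cells stably expressing human c-Mpl seeded at 1×10^4 cells/well with test substance (100 nM to 10 μM final) in RPMI-1640/10% FBS, overnight at 37 °C. Cell number by WST-type kit absorbance at 450 nm after ~5 h; proliferation % relative to untreated (0%) and reference agonist at 1 μM (100%).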

SMILES strings stand for the structures.

Sequence of human muscarinic M3 receptor (P20309 whole entry): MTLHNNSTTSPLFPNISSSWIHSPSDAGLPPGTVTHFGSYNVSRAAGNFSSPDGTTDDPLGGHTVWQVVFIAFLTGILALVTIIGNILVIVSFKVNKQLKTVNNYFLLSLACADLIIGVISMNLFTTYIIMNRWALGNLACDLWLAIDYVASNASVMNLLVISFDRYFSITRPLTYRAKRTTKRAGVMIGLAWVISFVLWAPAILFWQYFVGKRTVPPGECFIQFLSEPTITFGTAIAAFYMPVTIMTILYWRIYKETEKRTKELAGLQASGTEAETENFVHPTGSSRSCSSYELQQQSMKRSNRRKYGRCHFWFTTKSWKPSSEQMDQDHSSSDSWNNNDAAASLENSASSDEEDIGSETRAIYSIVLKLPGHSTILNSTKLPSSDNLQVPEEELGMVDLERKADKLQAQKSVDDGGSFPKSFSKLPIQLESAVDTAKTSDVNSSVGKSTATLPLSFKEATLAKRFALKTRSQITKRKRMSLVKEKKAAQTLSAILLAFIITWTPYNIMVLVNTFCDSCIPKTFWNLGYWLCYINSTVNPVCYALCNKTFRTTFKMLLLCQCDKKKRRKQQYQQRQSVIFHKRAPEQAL

Take `C[C@@H]1CCCN1Cc1sc(NC(=O)c2cnc(N3CCN(CCC(=O)[O-])CC3)cn2)nc1-c1cc(C#N)cc(C(F)(F)F)c1.[Na+]` [Example 34]: in data set [1], the “muscarinic M3 receptor-positive allosteric modulator activity, 1 μM (-fold shift)” value is 18 -fold shift and the “muscarinic M3 receptor-positive allosteric modulator activity, 10 μM (-fold shift)” value is listed as 116 -fold shift. Further, the “Enhancement rate (% of pre) of isolated bladder contractions” value in the data set with rat isolated bladder was 137 % of pre. Also, the “human c-Mpl-introduced Ba/F3 cell proliferative activity EC30” value in data set [2] is above 10 µM.

On to `C[C@@H]1CCCN1Cc1sc(NC(=O)c2cnc(N3CCN(CCC(=O)O)CC3)cn2)nc1-c1cc(C2CC2)cc(C(F)(F)F)c1` [Example 67], for which the “Enhancement rate (% of pre) of isolated bladder contractions” value in the data set with rat isolated bladder is 116 % of pre. Also, the “human c-Mpl-introduced Ba/F3 cell proliferative activity EC30” value in data set [2] is above 10 µM.

On to `COc1c(F)cc(-c2nc(NC(=O)c3cnc(N4CCN(CCC(=O)O)CC4)cn3)sc2CN2CCC[C@H]2C)cc1C(F)(F)F` [Example 72], for which the “Enhancement rate (% of pre) of isolated bladder contractions” value in the data set on rat isolated bladder is listed as 157 % of pre. Further, the “human c-Mpl-introduced Ba/F3 cell proliferative activity EC30” value in data set [2] is above 10 µM.

For the compound `C[C@@H]1CCCN1Cc1sc(NC(=O)c2cnc(N3CCN(CCC(=O)O)CC3)cn2)nc1-c1cc(Cl)cs1` [Example 82], the “Enhancement rate (% of pre) of isolated bladder contractions” value with rat isolated bladder is reported as 158 % of pre. Further, the “human c-Mpl-introduced Ba/F3 cell proliferative activity EC30” value in data set [2] was above 10 µM.

Turning to `C[C@@H]1CCCN1Cc1sc(NC(=O)c2cnc(N3CCN(CCC(=O)O)[C@@H](C)C3)cn2)nc1-c1cc(C(F)(F)F)cs1` [Example 95], the “Enhancement rate (% of pre) of isolated bladder contractions” value in the data set with rat isolated bladder is given as 150 % of pre. Also, the “human c-Mpl-introduced Ba/F3 cell proliferative activity EC30” value in data set [2] turned out to be 3 µM.

Take `CCN(CC)Cc1sc(NC(=O)c2cnc(N3CCN(CCC(=O)O)CC3)cn2)nc1-c1cc(F)cc(C(F)(F)F)c1` [Example 109]: in the data set on rat isolated bladder, the “Enhancement rate (% of pre) of isolated bladder contractions” value was 183 % of pre. In data set [2], the “human c-Mpl-introduced Ba/F3 cell proliferative activity EC30” value is above 10 µM.

On to `C[C@@H]1CC[C@@H](C)N1Cc1sc(NC(=O)c2cnc(N3CCN(CCC(=O)O)CC3)cn2)nc1-c1cc(F)cc(C(F)(F)F)c1` [Example 119], for which, in the data set with rat isolated bladder, the “Enhancement rate (% of pre) of isolated bladder contractions” value is listed as 154 % of pre. In data set [2], the “human c-Mpl-introduced Ba/F3 cell proliferative activity EC30” value is above 10 µM.

Turning to `CCC[C@@H]1CCCN1Cc1sc(NC(=O)c2cnc(N3CCN(CCC(=O)[O-])CC3)cn2)nc1-c1cccc(C(F)(F)F)c1.[Na+]` [Example 124], in data set [1], the “muscarinic M3 receptor-positive allosteric modulator activity, 1 μM (-fold shift)” value was 28 -fold shift and the “muscarinic M3 receptor-positive allosteric modulator activity, 10 μM (-fold shift)” value is recorded as 101 -fold shift. Moreover, the “Enhancement rate (% of pre) of isolated bladder contractions” value with rat isolated bladder was 132 % of pre. In addition, the “human c-Mpl-introduced Ba/F3 cell proliferative activity EC30” value in data set [2] is above 10 µM.

On to `CCOc1ccc(-c2nc(NC(=O)c3cnc(N4CCN(CCC(=O)O)C[C@H]4C)cn3)sc2CN2CCC[C@H]2CC)cc1C(F)(F)F` [Example 133], for which the “Enhancement rate (% of pre) of isolated bladder contractions” value in the data set on rat isolated bladder is on record as 151 % of pre. In data set [2], the “human c-Mpl-introduced Ba/F3 cell proliferative activity EC30” value is above 10 µM.

As for `CC[C@@H]1CCCN1Cc1sc(NC(=O)c2cnc(N3CCN(CCC(=O)O)C[C@H]3C)cn2)nc1-c1ccc(OC(C)C)c(C(F)(F)F)c1` [Example 135], the “Enhancement rate (% of pre) of isolated bladder contractions” value in the data set with rat isolated bladder was 139 % of pre. Further, in data set [2], the “human c-Mpl-introduced Ba/F3 cell proliferative activity EC30” value is above 10 µM.

For the compound `C[C@@H]1CCCN1Cc1sc(NC(=O)c2cnc(N3CCN(CCC(=O)O)C[C@H]3C)cn2)nc1-c1cc(F)cc(C(F)(F)F)c1` [Example 140], the “Enhancement rate (% of pre) of isolated bladder contractions” value in the data set with rat isolated bladder was 161 % of pre. For the same compound, the “human c-Mpl-introduced Ba/F3 cell proliferative activity EC30” value in data set [2] was above 10 µM.

As for `C[C@@H]1CCCN1Cc1sc(NC(=O)c2cnc(N3CCN(CC(=O)O)C[C@H]3C)cn2)nc1-c1cc(F)cc(C(F)(F)F)c1` [Example 141], the “Enhancement rate (% of pre) of isolated bladder contractions” value in the data set on rat isolated bladder is 121 % of pre. In data set [2], the “human c-Mpl-introduced Ba/F3 cell proliferative activity EC30” value was above 10 µM.

For the compound `C[C@@H]1CCCN1Cc1sc(NC(=O)c2cnc(N3CCN(CCC(=O)O)[C@@H](C)C3)cn2)nc1-c1cc(Cl)cs1` [Example 142], in the data set on rat isolated bladder, the “Enhancement rate (% of pre) of isolated bladder contractions” value is on record as 196 % of pre. For the same compound, the “human c-Mpl-introduced Ba/F3 cell proliferative activity EC30” value in data set [2] is 4.7 µM.

With `CC[C@@H]1CCCN1Cc1sc(NC(=O)c2cnc(N3CCN(CCC(=O)O)[C@H](C)C3)cn2)nc1-c1cc(Cl)cs1` [Example 143], the “Enhancement rate (% of pre) of isolated bladder contractions” value in the data set with rat isolated bladder is recorded as 140 % of pre. Also, the “human c-Mpl-introduced Ba/F3 cell proliferative activity EC30” value in data set [2] was determined as 7.8 µM.
